The text below walks through data of ChEMBL document CHEMBL1150894, “Three new manzamine congeners from amphimedon sponge” (J Nat Prod, 1998).

By MIC is commonly meant the lowest concentration that inhibits growth of the organism. The IC50 is the concentration needed to halve the response being measured.

The subject of experiment [1] is Micrococcus luteus. Put plainly: Antibacterial activity against Sarcina lutea. The class given is functional.
The subject of experiment [2] is L1210. Nature of the experiment: Cytotoxicity against mouse L1210 cells. The experiment is classed as functional, cell-based.
The subject of experiment [3] is Corynebacterium xerosis. Put plainly: Antibacterial activity against Corynebacterium xerosis. The experiment is classed as functional.

≈ marks a conversion by molar mass, not a printed value.

For the compound `O[C@]12C=C(C3=NCCc4c3[nH]c3ccccc43)[C@@H]3CCN(CC/C=C\CCCC1)C[C@@]31CC/C=C\CCCCN[C@H]12`, the MIC in experiment [1] and in experiment [3] was 12.5 µg/mL (≈ 22.6 µM) in each case. Further, the IC50 in experiment [2] is 0.5 µg/mL (≈ 0.904 µM).
In the case of `O[C@]12C=C(c3nccc4c3[nH]c3ccccc34)[C@@H]3CCN(CCCC/C=C\CC1)C[C@@]31C[C@@H]3/C=C\CCCCN3[C@H]12` [MANZAMINE A], the minimal inhibitory concentration (MIC) in experiment [1] turned out to be 2.3 µg/mL (≈ 4.19 µM); in experiment [3], 5.7 µg/mL (≈ 10.4 µM). In addition, in experiment [2], the half-inhibitory concentration (IC50) was found to be 1.4 µg/mL (≈ 2.55 µM).
